Counter-ions that a name gives are not always drawn.
Experiments:
Format in all cases: biochemical
[1] = test system: late components of human complement (C3-C9); assay: Test Code 035 (C3-C9 inhibitor), lysis of EAC 142; settings: serial dilution assay, twofold dilutions; higher well number indicates higher activity; N = Negative
Text: (§1) An active inhibitor protects C2 from C1 and C4; (ii) Test Code 035 (C3-C9 inhibitor)--This test determines the ability of the late components of human complement (C3-C9) to lyse EAC 142 in the presence of appropriate dilutions of the test compound. An active inhibitor protects EAC 142 from lysis by human C3-C9; (iii) Test Code 036 (C-Shunt inhibitor)--In this test human erythrocytes rendered fragile are lysed in autologous serum via the shunt pathway activated by cobra venom factor in the presence of appropriate dilutions of the test compound. Inhibition of the shunt pathway results in failure of lysis; (iv) Forssman Vasculitis Test--Here, the well known complement dependent lesion, Forssman Vasculitis, is produced in guinea pigs by intradermal injection of rabbit anti-Forssman antiserum. The lesion is measured in terms of diameter, edema and hemorrhage and the extent to which a combined index of these is inhibited by prior intraperitoneal injection of the test compound at 200 mg/kg is then reported, unless otherwise stated; (v) Forssman Shock Test--Lethal shock is produced in guinea pigs by an i.v. injection of anti-Forssman antiserum and the harmonic mean death time of treated guinea pigs is compared with that of simultaneous controls; (vi) Complement Level Reduction Test--In this test, the above dosed guinea pigs, or others, are bled for serum and the complement level is determined in undiluted serum by the capillary tube method of U.S. Pat. No. 3,876,376 and compared to undosed control guinea pigs; and (vii) Cap 50 Test--Here, appropriate amounts of the test compound are added to a pool of guinea pig serum in vitro, after which the undiluted serum capillary tube assay referred to above is run. The concentration of compound inhibiting 50% is reported.

shunt pathway = assay: Test Code 036 (C-Shunt inhibitor), lysis of fragile human erythrocytes in autologous serum, cobra venom factor; settings: serial dilution assay, twofold dilutions; higher well number indicates higher activity; N = Negative
Text: as §1

activated human C1 = activated human C1 (Homo sapiens, UniProt P09871); assay: Test Code 026 (C1 inhibitor); settings: serial dilution assay, twofold dilutions; higher well number indicates higher activity
Text: as §1

Row | SMILES | 035 Activity in wells [1] | 036 Activity in wells (shunt pathway) | 026 Activity in wells (activated human C1) [wells]
1 | [N-]=[N+]=NC[C@H]1O[C@@H]2O[C@H]3[C@H](OS(=O)(=O)O)[C@@H](OS(=O)(=O)O)[C@@H](O[C@H]4[C@H](OS(=O)(=O)O)[C@@H](OS(=O)(=O)O)[C@@H](O[C@H]5[C@H](OS(=O)(=O)O)[C@@H](OS(=O)(=O)O)[C@@H](O[C@H]6[C@H](OS(=O)(=O)O)[C@@H](OS(=O)(=O)O)[C@@H](O[C@H]7[C@H](OS(=O)(=O)O)[C@@H](OS(=O)(=O)O)[C@@H](O[C@H]1[C@H](OS(=O)(=O)O)[C@H]2OS(=O)(=O)O)O[C@@H]7CN=[N+]=[N-])O[C@@H]6CN=[N+]=[N-])O[C@@H]5CN=[N+]=[N-])O[C@@H]4CN=[N+]=[N-])O[C@@H]3CN=[N+]=[N-] [α-Cyclo[6-azido-6-deoxy]dextrin poly(H-sulfate)poly-sodium s] [6,6',6",6'",6"",6'""-Hexaazido-6,6',6",6'",6"",6'""-hexadeoxy-α-cyclodextrin, dodecakis(H-sulfate), dodecasodium salt] | 1 wells | 4 wells | 7
2 | [N-]=[N+]=NC[C@H]1O[C@@H]2O[C@H]3[C@H](OS(=O)(=O)O)[C@@H](OS(=O)(=O)O)[C@@H](O[C@H]4[C@H](OS(=O)(=O)O)[C@@H](OS(=O)(=O)O)[C@@H](O[C@H]5[C@H](OS(=O)(=O)O)[C@@H](OS(=O)(=O)O)[C@@H](O[C@H]6[C@H](OS(=O)(=O)O)[C@@H](OS(=O)(=O)O)[C@@H](O[C@H]7[C@H](OS(=O)(=O)O)[C@@H](OS(=O)(=O)O)[C@@H](O[C@H]1[C@H](OS(=O)(=O)O)[C@H]2OS(=O)(=O)O)O[C@@H]7CN=[N+]=[N-])O[C@@H]6CN=[N+]=[N-])O[C@@H]5CN=[N+]=[N-])O[C@@H]4CN=[N+]=[N-])O[C@@H]3CN=[N+]=[N-] [α-Cyclo[6-azido-6-deoxy]dextrin poly(H-sulfate)poly-trimethy] [6,6',6",6'",6"",6'""-Hexaazido-6,6',6",6'",6"",6'""-hexadeoxy-α-cyclodextrin, dodecakis(H-sulfate), dodecasalt with trimethylamine] | N | N | 2
3 | O=S(=O)(O)O[C@@H]1[C@@H](OS(=O)(=O)O)[C@H]2O[C@H]3[C@H](OS(=O)(=O)O)[C@@H](OS(=O)(=O)O)[C@@H](O[C@H]4[C@H](OS(=O)(=O)O)[C@@H](OS(=O)(=O)O)[C@@H](O[C@H]5[C@H](OS(=O)(=O)O)[C@@H](OS(=O)(=O)O)[C@@H](O[C@H]6[C@H](OS(=O)(=O)O)[C@@H](OS(=O)(=O)O)[C@@H](O[C@H]7[C@H](OS(=O)(=O)O)[C@@H](OS(=O)(=O)O)[C@@H](O[C@@H]1[C@@H](CBr)O2)O[C@@H]7CBr)O[C@@H]6CBr)O[C@@H]5CBr)O[C@@H]4CBr)O[C@@H]3CBr [α-Cyclo[6-bromo-6-deoxy]dextrin poly (H-sulfate)poly-sodium ] [6,6',6",6'",6"",6'""-Hexabromo-6,6',6",6'",6"",6'""-hexadeoxy-α-cyclodextrin dodecakis(H-sulfate), dodecasodium salt] | 5 wells | 4 wells | 6
4 | O=S(=O)(O)O[C@@H]1[C@@H](OS(=O)(=O)O)[C@H]2O[C@H]3[C@H](OS(=O)(=O)O)[C@@H](OS(=O)(=O)O)[C@@H](O[C@H]4[C@H](OS(=O)(=O)O)[C@@H](OS(=O)(=O)O)[C@@H](O[C@H]5[C@H](OS(=O)(=O)O)[C@@H](OS(=O)(=O)O)[C@@H](O[C@H]6[C@H](OS(=O)(=O)O)[C@@H](OS(=O)(=O)O)[C@@H](O[C@H]7[C@H](OS(=O)(=O)O)[C@@H](OS(=O)(=O)O)[C@@H](O[C@@H]1[C@@H](CBr)O2)O[C@@H]7CBr)O[C@@H]6CBr)O[C@@H]5CBr)O[C@@H]4CBr)O[C@@H]3CBr [α-Cyclo[6-bromo-6-deoxy]dextrin poly(H-sulfate)poly-trimethy] [α-Cyclo[6-bromo-6-deoxy]dextrin poly(H-sulfate)poly-trimethylamine salt] | 2 wells | N | 2
5 | N#CSC[C@H]1O[C@@H]2O[C@H]3[C@H](OS(=O)(=O)O)[C@@H](OS(=O)(=O)O)[C@@H](O[C@H]4[C@H](OS(=O)(=O)O)[C@@H](OS(=O)(=O)O)[C@@H](O[C@H]5[C@H](OS(=O)(=O)O)[C@@H](OS(=O)(=O)O)[C@@H](O[C@H]6[C@H](OS(=O)(=O)O)[C@@H](OS(=O)(=O)O)[C@@H](O[C@H]7[C@H](OS(=O)(=O)O)[C@@H](OS(=O)(=O)O)[C@@H](O[C@H]1[C@H](OS(=O)(=O)O)[C@H]2OS(=O)(=O)O)O[C@@H]7CSC#N)O[C@@H]6CSC#N)O[C@@H]5CSC#N)O[C@@H]4CSC#N)O[C@@H]3CSC#N [α-Cyclo[6-deoxy-6-thiocyanato]dextrin poly(H-sulfate)poly-so] [6,6',6",6'",6"",6'""-Hexadeoxy-6,6',6",6'",6"",6'""-hexathiocyanato-α-cyclodextrin, dodecakis(H-sulfate), dodecasodium salt] | 2 wells | 4 wells | 7
6 | N#CSC[C@H]1O[C@@H]2O[C@H]3[C@H](OS(=O)(=O)O)[C@@H](OS(=O)(=O)O)[C@@H](O[C@H]4[C@H](OS(=O)(=O)O)[C@@H](OS(=O)(=O)O)[C@@H](O[C@H]5[C@H](OS(=O)(=O)O)[C@@H](OS(=O)(=O)O)[C@@H](O[C@H]6[C@H](OS(=O)(=O)O)[C@@H](OS(=O)(=O)O)[C@@H](O[C@H]7[C@H](OS(=O)(=O)O)[C@@H](OS(=O)(=O)O)[C@@H](O[C@H]1[C@H](OS(=O)(=O)O)[C@H]2OS(=O)(=O)O)O[C@@H]7CSC#N)O[C@@H]6CSC#N)O[C@@H]5CSC#N)O[C@@H]4CSC#N)O[C@@H]3CSC#N [α-Cyclo[6-deoxy-6-thiocyanato]dextrin poly(H-sulfate)poly-tr] [6,6',6",6'",6"",6'""-Hexadeoxy-6,6',6",6'",6"",6'""-hexathiocyanato-α-cyclodextrin, dodecakis(H-sulfate), dodecasalt with trimethylamine] | N | N | 1
7 | C[C@H]1O[C@@H]2O[C@H]3[C@H](OS(=O)(=O)O)[C@@H](OS(=O)(=O)O)[C@@H](O[C@H]4[C@H](OS(=O)(=O)O)[C@@H](OS(=O)(=O)O)[C@@H](O[C@H]5[C@H](OS(=O)(=O)O)[C@@H](OS(=O)(=O)O)[C@@H](O[C@H]6[C@H](OS(=O)(=O)O)[C@@H](OS(=O)(=O)O)[C@@H](O[C@H]7[C@H](OS(=O)(=O)O)[C@@H](OS(=O)(=O)O)[C@@H](O[C@H]1[C@H](OS(=O)(=O)O)[C@H]2OS(=O)(=O)O)O[C@@H]7C)O[C@@H]6C)O[C@@H]5C)O[C@@H]4C)O[C@@H]3C [α-Cyclo[6-deoxy]dextrin poly(H-sulfate)poly-sodium salt] [6,6',6",6'",6"",6'""-Hexadeoxy-α-cyclodextrin, dodecakis(H-sulfate), dodecasodium salt] | 1 wells | 4 wells | 8

Source: patent publication US4258180A, “C6-Modified cyclodextrin sulfate salts as complement inhibitors” (American Cyanamid Company, priority 1979, dated 1981)
